Reference: patent publication US20250230193A1, “CYCLIC COMPOUND HAVING SELECTIVE KRAS INHIBITORY EFFECT ON HRAS AND NRAS” (CHUGAI SEIYAKU KABUSHIKI KAISHA, priority 2022, published 2025)

What was measured:
[1] = target: GDP-bound NRAS wild-type protein (Homo sapiens, UniProt P01111); test: Binding to NRAS by surface plasmon resonance (SPR), Single Cycle Kinetics; details: KD ratio, GDP-bound NRAS wild-type vs GDP-bound KRAS wild-type, SPR
[2] = target: GDP-bound HRAS wild-type protein (Homo sapiens, UniProt P01112); test: Binding to HRAS by surface plasmon resonance (SPR), Single Cycle Kinetics; details: KD ratio, GDP-bound HRAS wild-type vs GDP-bound KRAS wild-type, SPR
Chain of GDP-bound HRAS wild-type protein (P01112 whole entry): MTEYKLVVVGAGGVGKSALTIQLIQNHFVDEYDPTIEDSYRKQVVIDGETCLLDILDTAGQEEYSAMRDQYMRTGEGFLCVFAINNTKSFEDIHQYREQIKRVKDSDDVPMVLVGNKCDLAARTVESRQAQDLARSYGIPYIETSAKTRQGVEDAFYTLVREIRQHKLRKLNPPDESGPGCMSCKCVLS

Chain of GDP-bound NRAS wild-type protein (P01111 whole entry): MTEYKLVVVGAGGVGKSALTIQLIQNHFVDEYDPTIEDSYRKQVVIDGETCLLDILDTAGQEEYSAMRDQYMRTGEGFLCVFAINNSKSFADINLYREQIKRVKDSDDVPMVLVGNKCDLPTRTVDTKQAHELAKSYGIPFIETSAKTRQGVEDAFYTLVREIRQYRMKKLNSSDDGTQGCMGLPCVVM

| SMILES | NRAS/KRAS (ratio of KD value with respect to NRAS to KD value with respect to KRAS) [1] | HRAS/KRAS (ratio of KD value with respect to HRAS to KD value with respect to KRAS) [2] |
| --- | --- | --- |
| CCO[C@@H]1C[C@H]2C(=O)NC3(CCC3)C(=O)N(C)[C@@H](C3CCCC3)C(=O)N(C)[C@H](C(=O)N(C)C)CC(=O)N(C)[C@@H](CC)C(=O)N[C@@H]([C@@H](C)CC)C(=O)N(C)CC(=O)N(C)[C@H]3CCCCCN(C3=O)[C@@H](Cc3ccc4ccsc4c3)C(=O)N(C)CC(=O)N[C@@H](CCc3cc(F)c(C(F)(F)F)c(F)c3)C(=O)N2C1 [PP0910] | B (a compound having 3 or more and less than 10 is denoted as B) | B (a compound having 3 or more and less than 10 is denoted as B) |
| CCO[C@@H]1C[C@H]2C(=O)NC3(CCC3)C(=O)N(C)[C@@H](C3CCCC3)C(=O)N(C)[C@H](C(=O)N(C)C)CC(=O)N(C)[C@@H](CC)C(=O)N[C@@H]([C@@H](C)CC)C(=O)N(C)CC(=O)N(C)[C@H]3CCCCCN(C3=O)[C@@H](Cc3ccc(F)cc3C)C(=O)N(C)CC(=O)N[C@@H](CCc3cc(F)c(C(F)(F)F)c(F)c3)C(=O)N2C1 [PP0911] | B (a compound having 3 or more and less than 10 is denoted as B) | B (a compound having 3 or more and less than 10 is denoted as B) |
| CCO[C@@H]1C[C@H]2C(=O)NC3(CCC3)C(=O)N(C)[C@@H](C3CCCC3)C(=O)N(C)[C@H](C(=O)N(C)C)CC(=O)N(C)[C@@H](CC)C(=O)N[C@@H]([C@@H](C)CC)C(=O)N(C)CC(=O)N(C)[C@H]3CCCCCN(C3=O)[C@@H](Cc3ccc(F)c(C)c3)C(=O)N(C)CC(=O)N[C@@H](CCc3cc(F)c(C(F)(F)F)c(F)c3)C(=O)N2C1 [PP0912] | B (a compound having 3 or more and less than 10 is denoted as B) | B (a compound having 3 or more and less than 10 is denoted as B) |
| CCO[C@@H]1C[C@H]2C(=O)NC3(CCC3)C(=O)N(C)[C@@H](C3CCCC3)C(=O)N(C)[C@H](C(=O)N(C)C)CC(=O)N(C)[C@@H](CC)C(=O)N[C@@H]([C@@H](C)CC)C(=O)N(C)CC(=O)N(C)[C@H]3CCCCCN(C3=O)[C@@H](Cc3nccs3)C(=O)N(C)CC(=O)N[C@@H](CCc3cc(F)c(C(F)(F)F)c(F)c3)C(=O)N2C1 [PP0913] | B (a compound having 3 or more and less than 10 is denoted as B) | B (a compound having 3 or more and less than 10 is denoted as B) |
| CCO[C@@H]1C[C@H]2C(=O)NC3(CCC3)C(=O)N(C)[C@@H](C3CCCC3)C(=O)N(C)[C@H](C(=O)N(C)C)CC(=O)N(C)[C@@H](CC)C(=O)N[C@@H]([C@@H](C)CC)C(=O)N(C)CC(=O)N(C)[C@H]3CCCCCN(C3=O)[C@@H](Cc3ccc(F)cc3OC)C(=O)N(C)CC(=O)N[C@@H](CCc3cc(F)c(C(F)(F)F)c(F)c3)C(=O)N2C1 [PP0914] | B (a compound having 3 or more and less than 10 is denoted as B) | B (a compound having 3 or more and less than 10 is denoted as B) |
| CCO[C@@H]1C[C@H]2C(=O)NC3(CCC3)C(=O)N(C)[C@@H](C3CCCC3)C(=O)N(C)[C@H](C(=O)N(C)C)CC(=O)N(C)[C@@H](CC)C(=O)N[C@@H]([C@@H](C)CC)C(=O)N(C)CC(=O)N(C)[C@H]3CCCCCN(C3=O)[C@@H](Cc3ccc(F)c(OC)c3)C(=O)N(C)CC(=O)N[C@@H](CCc3cc(F)c(C(F)(F)F)c(F)c3)C(=O)N2C1 [PP0915] | B (a compound having 3 or more and less than 10 is denoted as B) | B (a compound having 3 or more and less than 10 is denoted as B) |
| CCO[C@@H]1C[C@H]2C(=O)NC3(CCC3)C(=O)N(C)[C@@H](C3CCCC3)C(=O)N(C)[C@H](C(=O)N3CCOCC3)CC(=O)N(C)[C@@H](CC(C)C)C(=O)N[C@@H]([C@@H](C)CC)C(=O)N(C)CC(=O)N(C)[C@H]3CCCCCN(C3=O)[C@@H](Cc3ccc(F)c(F)c3)C(=O)N(C)CC(=O)N[C@@H](CCc3cc(F)c(C(F)(F)F)c(F)c3)C(=O)N2C1 [PP0917] | B (a compound having 3 or more and less than 10 is denoted as B) | B (a compound having 3 or more and less than 10 is denoted as B) |
| CCO[C@@H]1C[C@H]2C(=O)NC3(CCC3)C(=O)N(C)[C@@H](C3CCCC3)C(=O)N(C)[C@H](C(=O)N3CCOCC3)CC(=O)N(C)[C@@H](CC(C)C)C(=O)N[C@@H]([C@@H](C)CC)C(=O)N(C)CC(=O)N(C)[C@H]3CCCCCN(C3=O)[C@@H](Cc3ccc(F)cc3Cl)C(=O)N(C)CC(=O)N[C@@H](CCc3cc(F)c(C(F)(F)F)c(F)c3)C(=O)N2C1 [PP0918] | B (a compound having 3 or more and less than 10 is denoted as B) | B (a compound having 3 or more and less than 10 is denoted as B) |
| CCO[C@@H]1C[C@H]2C(=O)NC3(CCC3)C(=O)N(C)[C@@H](C3CCCC3)C(=O)N(C)[C@H](C(=O)N3CCOCC3)CC(=O)N(C)[C@@H](CC(C)C)C(=O)N[C@@H]([C@@H](C)CC)C(=O)N(C)CC(=O)N(C)[C@H]3CCCCCN(C3=O)[C@@H](Cc3ccc(F)c(Cl)c3)C(=O)N(C)CC(=O)N[C@@H](CCc3cc(F)c(C(F)(F)F)c(F)c3)C(=O)N2C1 [PP0919] | B (a compound having 3 or more and less than 10 is denoted as B) | B (a compound having 3 or more and less than 10 is denoted as B) |
| CCO[C@@H]1C[C@H]2C(=O)NC3(CCC3)C(=O)N(C)[C@@H](C3CCCC3)C(=O)N(C)[C@H](C(=O)N3CCOCC3)CC(=O)N(C)[C@@H](CC(C)C)C(=O)N[C@@H]([C@@H](C)CC)C(=O)N(C)CC(=O)N(C)[C@H]3CCCCCN(C3=O)[C@@H](Cc3ccc4sccc4c3)C(=O)N(C)CC(=O)N[C@@H](CCc3cc(F)c(C(F)(F)F)c(F)c3)C(=O)N2C1 [PP0920] | B (a compound having 3 or more and less than 10 is denoted as B) | B (a compound having 3 or more and less than 10 is denoted as B) |
| CCO[C@@H]1C[C@H]2C(=O)NC3(CCC3)C(=O)N(C)[C@@H](C3CCCC3)C(=O)N(C)[C@H](C(=O)N3CCOCC3)CC(=O)N(C)[C@@H](CC(C)C)C(=O)N[C@@H]([C@@H](C)CC)C(=O)N(C)CC(=O)N(C)[C@H]3CCCCCN(C3=O)[C@@H](Cc3ccc4ccsc4c3)C(=O)N(C)CC(=O)N[C@@H](CCc3cc(F)c(C(F)(F)F)c(F)c3)C(=O)N2C1 [PP0921] | B (a compound having 3 or more and less than 10 is denoted as B) | B (a compound having 3 or more and less than 10 is denoted as B) |
| CCO[C@@H]1C[C@H]2C(=O)NC3(CCC3)C(=O)N(C)[C@@H](C3CCCC3)C(=O)N(C)[C@H](C(=O)N3CCOCC3)CC(=O)N(C)[C@@H](CC(C)C)C(=O)N[C@@H]([C@@H](C)CC)C(=O)N(C)CC(=O)N(C)[C@H]3CCCCCN(C3=O)[C@@H](Cc3ccc(F)c(C)c3)C(=O)N(C)CC(=O)N[C@@H](CCc3cc(F)c(C(F)(F)F)c(F)c3)C(=O)N2C1 [PP0922] | B (a compound having 3 or more and less than 10 is denoted as B) | B (a compound having 3 or more and less than 10 is denoted as B) |
| CCO[C@@H]1C[C@H]2C(=O)NC3(CCC3)C(=O)N(C)[C@@H](C3CCCC3)C(=O)N(C)[C@H](C(=O)N3CCOCC3)CC(=O)N(C)[C@@H](CC(C)C)C(=O)N[C@@H]([C@@H](C)CC)C(=O)N(C)CC(=O)N(C)[C@H]3CCCCCN(C3=O)[C@@H](Cc3nccs3)C(=O)N(C)CC(=O)N[C@@H](CCc3cc(F)c(C(F)(F)F)c(F)c3)C(=O)N2C1 [PP0923] | B (a compound having 3 or more and less than 10 is denoted as B) | B (a compound having 3 or more and less than 10 is denoted as B) |
| CCO[C@@H]1C[C@H]2C(=O)NC3(CCC3)C(=O)N(C)[C@@H](C3CCCC3)C(=O)N(C)[C@H](C(=O)N3CCOCC3)CC(=O)N(C)[C@@H](CC(C)C)C(=O)N[C@@H]([C@@H](C)CC)C(=O)N(C)CC(=O)N(C)[C@H]3CCCCCN(C3=O)[C@@H](Cc3ccc(F)cc3OC)C(=O)N(C)CC(=O)N[C@@H](CCc3cc(F)c(C(F)(F)F)c(F)c3)C(=O)N2C1 [PP0924] | B (a compound having 3 or more and less than 10 is denoted as B) | B (a compound having 3 or more and less than 10 is denoted as B) |
| CCO[C@@H]1C[C@H]2C(=O)NC3(CCC3)C(=O)N(C)[C@@H](C3CCCC3)C(=O)N(C)[C@H](C(=O)N3CCOCC3)CC(=O)N(C)[C@@H](Cc3ccccc3F)C(=O)N[C@@H]([C@@H](C)CC)C(=O)N(C)CC(=O)N(C)[C@H]3CCCCCN(C3=O)[C@@H](Cc3ccc(C(F)(F)F)cc3)C(=O)N(C)CC(=O)N[C@@H](CCc3cc(F)c(C(F)(F)F)c(F)c3)C(=O)N2C1 [PP0926] | B (a compound having 3 or more and less than 10 is denoted as B) | B (a compound having 3 or more and less than 10 is denoted as B) |
| CCO[C@@H]1C[C@H]2C(=O)NC3(CCC3)C(=O)N(C)[C@@H](C3CCCC3)C(=O)N(C)[C@H](C(=O)N3CCOCC3)CC(=O)N(C)[C@@H](Cc3ccc(F)c(F)c3)C(=O)N[C@@H]([C@@H](C)CC)C(=O)N(C)CC(=O)N(C)[C@H]3CCCCCN(C3=O)[C@@H](Cc3ccc(C(F)(F)F)cc3)C(=O)N(C)CC(=O)N[C@@H](CCc3cc(F)c(C(F)(F)F)c(F)c3)C(=O)N2C1 [PP0928] | A (a compound having 10 or more and less than 20 is denoted as A) | B (a compound having 3 or more and less than 10 is denoted as B) |
